Here are results for four molecules from patent US11891405B2, “Furo[3,4-b]pyrrole-containing BTK inhibitor” (CHIA TAI TIANQING PHARMACEUTICAL GROUP CO., LTD., priority 2018, dated 2024).

pIC50: −log10 of the molar value.

In series [1] the target is T1, BTK (Y223) phosphorylation in Ramos lymphoma cells (Homo sapiens, UniProt Q06187).
T1 construct: Ramos lymphoma cells in logarithmic growth phase were centrifuged; endogenous in cells; host or cells: Ramos lymphoma cells
The experiment in a line: BTK (Y223) phosphorylation inhibition at cell level. Format: cell-based. The procedure: EXPERIMENTAL EXAMPLE 2: SCREENING FOR BTK (Y223) PHOSPHORYLATION INHIBITION ACTIVITY AT CELL LEVEL
20 μL of 30% hydrogen peroxide was added in 860 μL of double distilled water to prepare 200 mM hydrogen peroxide. PV (sodium pervanadate): 10 μL of 200 mmol/L sodium orthovanadate was reacted with 10 μL of 200 mmol/L hydrogen peroxide in 80 μL of RPMI 1640 complete medium at room temperature for 15 min, and the reaction solution was diluted with RPMI 1640 complete medium to 6 mM. It was prepared freshly prior to use. Ramos lymphoma cells in logarithmic growth phase were centrifuged at 1500 rpm for 3 min using a low-speed centrifuge, added with a proper amount of RPMI 1640 complete medium, resuspended and counted. A proper amount of corresponding culture medium was added to a proper amount of cell suspension to adjust the cell density to about 1-2×10E7 cells/mL. The cells at the above cell density were seeded in a 384-well plate at 20 μL/well, then 5 μL of compound was added to each well, and the plate was incubated for 1 h. 20 mM PV was diluted with RPMI 1640 complete medium to 6 mM (final concentration: 1 mM), added to wells at 5 μL/well according to the plate distribution, and incubated for 15-20 min. The blank group was wells seeded with cells, without compound and PV, and the control group was wells seeded with cells, without compound and with PV. 10 μL of lysis buffer (4×) containing blocking buffer was added immediately and incubated by shaking at room temperature for 30 min. After the mixture was mixed, 16 μL of lysate was transferred to another 384-well small-volume white plate. The plate was added with 4 μL of pre-mixed antibody (vol/vol) in assay buffer, covered, centrifuged to mix well, and incubated overnight at room temperature. The 665 nm/620 nm signal value was detected using a PE Envision multi-functional microplate reader, and IC50 was calculated by four-parameter fitting.

The target in a further series is T2, TEC (Homo sapiens, UniProt P42680).
T2 sequence (P42680 1-631): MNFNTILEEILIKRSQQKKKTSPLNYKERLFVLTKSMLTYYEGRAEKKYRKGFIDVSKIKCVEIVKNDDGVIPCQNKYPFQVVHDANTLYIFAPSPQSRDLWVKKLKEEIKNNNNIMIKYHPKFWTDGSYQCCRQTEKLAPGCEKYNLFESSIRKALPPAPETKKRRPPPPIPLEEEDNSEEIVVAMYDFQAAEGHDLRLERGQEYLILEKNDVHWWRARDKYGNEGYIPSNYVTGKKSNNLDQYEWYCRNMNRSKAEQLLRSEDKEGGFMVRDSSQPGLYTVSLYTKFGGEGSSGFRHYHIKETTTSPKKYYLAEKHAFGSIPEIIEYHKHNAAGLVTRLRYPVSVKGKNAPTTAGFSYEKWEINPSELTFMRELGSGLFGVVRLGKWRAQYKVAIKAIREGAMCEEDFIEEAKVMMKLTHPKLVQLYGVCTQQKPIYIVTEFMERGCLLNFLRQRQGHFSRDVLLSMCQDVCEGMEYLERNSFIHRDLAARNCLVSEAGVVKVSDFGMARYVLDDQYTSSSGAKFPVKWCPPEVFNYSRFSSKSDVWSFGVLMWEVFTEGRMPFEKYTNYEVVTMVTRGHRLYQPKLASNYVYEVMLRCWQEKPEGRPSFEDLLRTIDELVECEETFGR
Nature of the series: Screening for TEC inhibitory activity. Format: biochemical. The procedure: 1.3 Screening for TEC Inhibitory Activity
50 ng/μL TEC stock solution was diluted with kinase buffer (50 mM HEPES, 10 mM MgCl2, 2 mM DTT, 1 mM EGTA, 0.01% Tween 20), and 6 μL of 1.67× working solution at […] (final concentration: 0.008 ng/μL) was added to each well. Different compounds dissolved in DMSO were added to the wells using a nanoliter pipettor, resulting in the final concentration of 1000 nM to 0.24 nM (4-fold gradient for 7 concentrations in total), and blank control wells (without enzyme) and negative control wells (with enzyme, plus vehicle DMSO) were set. After enzyme was reacted with the compound or vehicle for 30 min, 5×ATP at 50 μM (final concentration: 10 μM) prepared with kinase buffer was mixed with 5× substrate at 0.5 μM (final concentration: 0.1 μM, ULight-poly GT) at a ratio of 1:1, and the mixture was added to each well at 4 μL/well. After being sealed with a film, the plate was incubated at room temperature for 2 h, then 5 μL of 4×EDTA at 40 mM (final concentration: 10 mM) was added to each well. After the plate was incubated for 5 min at room temperature, 5 μL of 4× detection reagent at 8 nM (final concentration: 2 nM, Eu-anti-phospho-tyrosine antibody) was added to each well, followed by incubation at room temperature for 1 h. The plate was read using a PE Envision multi-functional microplate reader (excitation: 320 nm, emission: 665 nm), and IC50 was calculated by four-parameter fitting.

Series [2] in a line: Mouse liver microsome metabolic stability. Format: in vitro ADME. Conditions: mouse liver microsomes. As to the method: 3.2 Mouse Liver Microsome Assay
300 μL of final incubation system: 30 μL of mouse liver microsomes (protein concentration: 5 mg/mL, XENOTECH, USA), 30 μL of NADPH (10 mM)+MgCl2 (5 mM), 3 μL of the substrate, i.e., the example compound (dissolved in 50% aqueous acetonitrile solution, 100 μM), and 237 μL of PBS buffer, wherein the proportion of the organic solvent (acetonitrile) was 0.5%. Each tube was added with 270 μL of a mixed solution of substrate and enzyme, and after being pre-incubated at 37° C. for 5 min, added with 30 μL of NADPH+MgCl2. Then 50 μL of the mixture was taken at 0 min, 15 min, 30 min and 60 min, and added with 300 μL of diazepam glacial acetonitrile (20 ng/mL) containing an internal standard to quench the reaction. The reaction mixture was vortexed for 5 min, and centrifuged (13,000 rpm, 4° C.) for 10 min. 100 μL of supernatant was pipetted into a sample vial, from which 1 μL of supernatant was injected and analyzed by LC-MS/MS, and the residual percentage was calculated.

T1 sequence (Q06187 whole entry): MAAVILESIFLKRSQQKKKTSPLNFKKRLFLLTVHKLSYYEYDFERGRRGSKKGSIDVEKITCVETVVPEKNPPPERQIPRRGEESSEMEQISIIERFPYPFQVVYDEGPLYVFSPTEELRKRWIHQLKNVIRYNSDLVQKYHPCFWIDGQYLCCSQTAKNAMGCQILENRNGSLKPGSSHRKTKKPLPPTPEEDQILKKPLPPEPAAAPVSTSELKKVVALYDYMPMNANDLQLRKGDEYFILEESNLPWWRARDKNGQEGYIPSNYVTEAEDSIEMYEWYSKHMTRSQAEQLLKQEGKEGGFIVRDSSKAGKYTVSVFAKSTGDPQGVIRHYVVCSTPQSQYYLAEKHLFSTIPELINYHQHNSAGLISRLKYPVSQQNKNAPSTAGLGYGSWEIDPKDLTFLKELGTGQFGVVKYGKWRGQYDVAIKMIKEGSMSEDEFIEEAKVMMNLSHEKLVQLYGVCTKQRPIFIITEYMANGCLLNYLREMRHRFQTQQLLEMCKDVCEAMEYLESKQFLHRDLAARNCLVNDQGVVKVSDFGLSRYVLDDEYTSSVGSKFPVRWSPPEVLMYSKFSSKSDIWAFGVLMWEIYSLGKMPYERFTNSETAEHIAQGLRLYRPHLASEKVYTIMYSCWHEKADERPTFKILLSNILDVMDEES

As for `CC#CC(=O)N1[C@@H]2COC[C@@H]2C[C@H]1c1nc(-c2ccc(C(=O)Nc3ccccn3)cc2)c2c(N)nccn12` [Compound I-1, 4-(8-amino-3-((2S,3aR,6aS)-1-(but-2-ynoyl)hexahydro-1H-furo[3,4-b]pyrrol-2-yl)imidazo [1,5-a]pyrazin-1-yl)-N-(pyridin-2-yl)benzamide], the results for the pIC50 (in series [1]; on TEC) were 7.52 and 6.81, respectively. For the same molecule, in series [2], the “Mouse (MLM) Remaining % (T = 60 min)” value worked out at 90%.

For `C=CC(=O)N1[C@@H]2COC[C@@H]2C[C@H]1c1nc(-c2ccc(C(=O)Nc3ccccn3)cc2)c2c(N)nccn12` [Compound I-3, 4-(3-((2S,3AR,6AS)-1-ACRYLOYLHEXAHYDRO-1H-FURO[3,4-B]PYRROL-2-YL)-8-AMINOIMIDAZO [1,5-A]PYRAZIN-1-YL)-N-(PYRIDIN-2-YL)BENZAMIDE], the pIC50 (in general, the negative decadic logarithm of the IC50, by convention in mol/L) is 7.60 in series [1] and 6.96 at TEC. Moreover, the “Mouse (MLM) Remaining % (T = 60 min)” value in series [2] turned out to be 89%.

Turning to `CC#CC(=O)N1[C@@H]2COC[C@@H]2C[C@H]1c1nc(-c2ccc(C(=O)Nc3cc(C(F)(F)F)ccn3)cc2F)c2c(N)nccn12` [Compound I-4, 4-(8-AMINO-3-((2S,3AR,6AS)-1-(BUT-2-YNOYL)HEXAHYDRO-1H-FURO[3,4-B]PYRROL-2-YL)IMIDAZO[1,5-A]PYRAZIN-1-YL)-3-FLUORO-N-(4-(TRIFLUOROMETHYL)PYRIDIN-2-YL)BENZAMIDE], the negative logarithm of the IC50 (pIC50) is 7.18 in series [1] and 7.60 on TEC. In addition, the “Mouse (MLM) Remaining % (T = 60 min)” value in series [2] was 32%.

In series [1], `Nc1nccn2c([C@@H]3C[C@H]4COC[C@H]4N3C(=O)C3CC3)nc(-c3ccc(C(=O)Nc4cc(C(F)(F)F)ccn4)cc3F)c12` [Compound I-7, 4-(8-AMINO-3-((2S,3AR,6AS)-1-(CYCLOPROPANECARBONYL)HEXAHYDRO-1H-FURO[3,4-B]PYRROL-2-YL)IMIDAZO[1,5-A]PYRAZIN-1-YL)-3-FLUORO-N-(4-(TRIFLUOROMETHYL)PYRIDIN-2-YL)BENZAMIDE] showed a negative logarithm of the IC50 (pIC50) of 7.28. Moreover, in series [2], the “Mouse (MLM) Remaining % (T = 60 min)” value was 55.7%.
